Results on 4 molecules are retold here after US6887903B1, “N-(2-aryl-propionyl)-sulfonamides and pharmaceutical preparations containing them” (Dompe S.p.A., priority 1998, dated 2005).

The structures appear in SMILES notation.

One test concerns CO enzymes. As to conditions: ketoprofen enantiomers; cited from earlier work.
Test [1] deals with PMN human leukocytes stimulated by interleukin 8. Nature of the test: Chemotaxis of human PMN induced by IL-8. It counts as cell-based. Particulars: IL-8 10 ng/mL; concentration range from 10^−6 to 10^−11 M; mean ±S.D. of 3 independent tests. Here is the method:
(§1) The compounds of the invention were studied using PMN cells obtained by sedimentation of heparinized blood from healthy volunteers on dextran; the mononuclear cells were removed by means of Ficoll/Hypaque whereas erythrocytes were removed by treatment with hypotonic solutions. Cell viability of PMN leukocytes was calculated by exclusion with Turk and Trypan Blue, while the percentage of PM-nucleates on the cytocentrifugate was evaluated upon staining with Diff Quinck (W. J. Ming et al., J. Immunol., 138, 1469, 1987).
(§2) In each of the “in vitro” tests subsequently described, PMN were incubated with the compounds of the invention for 10 minutes at a temperature of 37° C.
(§3) In the chemotaxis tests and in those for evaluating cytosol levels of the Ca^2+ ion, human recombinant IL-8 (Pepro Tech.) was used as stimulating agent: the freeze-dried protein was dissolved in HBSS (Hank's balanced salts solution) at a concentration of 100 ng/mL and was used after dilution in HBSS to concentrations of 10 ng/mL in the chemotaxis tests and of 25-50 ng/mL in the evaluation of [Ca^2+]i cell modifications.
In the chemotaxis test (according to W. Falket et al., J. Immunol. Methods, 33, 239, 1980) PVP filters of […] porosity and a plexigas microcamera suitable to perform 48 replications were used. […]

Test [2] has as its system PMN human leukocytes stimulated by C5a. The test is described as follows: Chemotaxis of human PMN induced by C5a. It counts as cell-based. As to conditions: C5a 10^−9 M; DF 1681 from 10^−6 to 10^−7 M. On the procedure:
as §1, §2
(§4) In the chemotaxis test (according to W. Falket et al., J. Immunol. Methods, 33, 239, 1980) PVP filters of […] porosity and a plexigas microcamera suitable to perform 48 replications were used. The microcamera consists of a plexiglas piece containing 48 wells, each of 25 μL capacity, and is equipped with a cover, in its turn containing 48 pores arranged so that, once the lid has been placed on and screwed to the underneath part, 50 μL capacity top compartments are formed in the microcamera.
(§5) Equal concentrations of the tested compounds were placed in the top wells containing the PMN suspension and in the lower ones, which contained the carrier optionally added with IL-8 (or a different stimulating agent).

Test [3] has as its system PMN human leukocytes stimulated by f-MLP. The test is described as follows: Chemotaxis of human PMN induced by f-MLP. Particulars: f-MLP 10^−8 M; DF 1681 from 10^−6 to 10^−7 M. The test is classed as cell-based. Here is the method:
as §1, §2, §4, §5

In test [4] the test system is human PMNs leukocytes stimulated by IL-8. The test is described as follows: Cytosol [Ca2+]i variations in human PMN stimulated by IL-8 (Fura-2AM). It counts as cell-based. Particulars: for [Ca2+]i response, % compared with basal values (basal normalized at 100): compound 10^−6 M + IL-8 50 ng/mL, mean of responsive cells with SEM, PMN from 3 donors; for percentage of non-responsive cells: pretreated with compound 10^−6 M, IL-8 50 ng/mL (30% with only IL-8). Here is the method: as §1, §2, §3
Cytosol variations of [Ca^2+]i were determined according to the experimental model described by C. Bizzarri et al., (Blood, 86, 2388, 1995), using slides containing adhered PMN added with 1 μM Fura-2AM to evaluate [Ca^2+]i variations in actual time. In their turn, PMN cytocentrifugates were resuspended in RPMI 1640 medium with 5% FCS (bovine foetal serum) at a concentration of 3×10^6/mL and then inoculated (plated) on round glass slides of 25 mm diameter which were placed in incubator for 30 min. at 37° C. After three subsequent washings with BSS (Balanced salts solution) to remove the non adherent cells, all of the adherent cells were further incubated for a maximum of 4 hours before adding Fura-2AM.
By way of example, results obtained with R(−)-N-2-[3-(benzoylphenyl)-propionyl])-methanesulfonamide (DF 1661) and R(−)-N-2-[(4-Isobutylphenyl)-propionyl]-methanesulfonamide (DF 1681) using human PMNs leukocytes from 3 different donors are reported in the subsequent table. These leukocytes were considered responsive to IL-8 (50 ng/mL) when [Ca^2+]i was higher than the basal value by 34% (normalized at 100) in response to the stimulus.
The responses, expressed as % compared with [Ca^2+]i basal values, are the mean of the values of the responsive cells and include standard error (SEM); n is the number of replications. During these tests, the percentage of non-responsive cells was different in the different groups: 30% in the group treated with only IL-8, 40% in the group pretreated with DF 1661 and 70% in the group pretreated with DF 1681.

Test [5] deals with human neutrophils stimulated by IL-8. As to conditions: IL-8 1 nM; read-out: IC50 of blockage of chemotaxis stimulated by IL-8; cited from earlier work.
The subject of test [6] is human neutrophils stimulated by GROα. As to conditions: GROα 10 nM; read-out: IC50 of blockage of chemotaxis stimulated by GROα; cited from earlier work.
In test [7] the test system is human neutrophils stimulated by complement C5a. Particulars: concentration range of 50 to 330 nM; cited from earlier work.

A word on the IC50: it is the point on the concentration scale where inhibition reaches its midpoint.

In the case of `C[C@@H](C(=O)O)c1cccc(C(=O)c2ccccc2)c1` (single isomer, unassigned) [enantiomer (R)], in the test with CO enzymes, the “lower potency of enantiomer (R) compared with enantiomer (S) as CO enzymes inhibitor” value is recorded as 10-100 times.

For `CC(C)Cc1ccc([C@@H](C)C(=O)NS(C)(=O)=O)cc1` [DF 1681, R(−)-N-[2-(4-Isobutylphenyl)propionyl]-methanesulfonamide], the “inhibition of chemotaxis induced by IL-8 (number of migrated PMN, FIG. 1)” value in test [1] is reported as “dose-dependently inhibits chemotaxis induced by IL-8”. Besides, in test [2], the “inhibition of chemotaxis induced by C5a (FIG. 2)” value is recorded as “selectivity inhibit IL-8-induced chemotaxis instead of chemotaxis induced by C5a”. The “inhibition of chemotaxis induced by f-MLP (FIG. 2)” value in test [3] is reported as “selectivity inhibit IL-8-induced chemotaxis instead of chemotaxis induced by C5a (10^−9 M) or by f-MLP”. In test [4], the “[Ca2+]i response, % compared with basal values (basal normalized at 100)” value is 159 + 16 (n = 10) % and the “percentage of non-responsive cells” value was 70%.

`O=C(Nc1ccc([N+](=O)[O-])cc1O)Nc1ccccc1Br` [N-(2-hydroxy-4-nitrophenyl)-N′-(2-bromo-phenyl)urea]: the IC50 in test [5] and in test [6] was 20 to 60 nM in each case. The “blockage of C5a-stimulated chemotaxis” value in test [7] is reported as “but not that of complement C5a-stimulated chemotaxis”.

Turning to `C[C@@H](C(=O)NS(C)(=O)=O)c1cccc(C(=O)c2ccccc2)c1` [DF 1661], in test [4], the “[Ca2+]i response, % compared with basal values (basal normalized at 100)” value is listed as 184 + 16 (n = 10) % and the “percentage of non-responsive cells” value is recorded as 40%.
